The source of these data is ChEMBL document CHEMBL4819073, “Synthesis and biological evaluation of phenothiazine derivative-containing hydroxamic acids as potent class II histone deacetylase inhibitors” (Eur J Med Chem, 2021).

Activity calls are given as the source filed them. The calls are words filed in the database; no cut-off is given here. Bounds are passed on as bounds.

One data set concerns N2a. Briefly: Cytotoxicity against mouse Neuro2a cells assessed as reduction in cell viability at 20 uM incubated for 24 hrs by Cell Titer-Glo 2.0 Luminescent cell assay. The data set is classed as cell-based. For orientation: In ATP-based viability assays light output follows the ATP content of the culture.
The target in data set [1] is T1, Protein deacetylase HDAC6 (Mus musculus) (UniProt Q9Z2V5).
T1 sequence (whole entry): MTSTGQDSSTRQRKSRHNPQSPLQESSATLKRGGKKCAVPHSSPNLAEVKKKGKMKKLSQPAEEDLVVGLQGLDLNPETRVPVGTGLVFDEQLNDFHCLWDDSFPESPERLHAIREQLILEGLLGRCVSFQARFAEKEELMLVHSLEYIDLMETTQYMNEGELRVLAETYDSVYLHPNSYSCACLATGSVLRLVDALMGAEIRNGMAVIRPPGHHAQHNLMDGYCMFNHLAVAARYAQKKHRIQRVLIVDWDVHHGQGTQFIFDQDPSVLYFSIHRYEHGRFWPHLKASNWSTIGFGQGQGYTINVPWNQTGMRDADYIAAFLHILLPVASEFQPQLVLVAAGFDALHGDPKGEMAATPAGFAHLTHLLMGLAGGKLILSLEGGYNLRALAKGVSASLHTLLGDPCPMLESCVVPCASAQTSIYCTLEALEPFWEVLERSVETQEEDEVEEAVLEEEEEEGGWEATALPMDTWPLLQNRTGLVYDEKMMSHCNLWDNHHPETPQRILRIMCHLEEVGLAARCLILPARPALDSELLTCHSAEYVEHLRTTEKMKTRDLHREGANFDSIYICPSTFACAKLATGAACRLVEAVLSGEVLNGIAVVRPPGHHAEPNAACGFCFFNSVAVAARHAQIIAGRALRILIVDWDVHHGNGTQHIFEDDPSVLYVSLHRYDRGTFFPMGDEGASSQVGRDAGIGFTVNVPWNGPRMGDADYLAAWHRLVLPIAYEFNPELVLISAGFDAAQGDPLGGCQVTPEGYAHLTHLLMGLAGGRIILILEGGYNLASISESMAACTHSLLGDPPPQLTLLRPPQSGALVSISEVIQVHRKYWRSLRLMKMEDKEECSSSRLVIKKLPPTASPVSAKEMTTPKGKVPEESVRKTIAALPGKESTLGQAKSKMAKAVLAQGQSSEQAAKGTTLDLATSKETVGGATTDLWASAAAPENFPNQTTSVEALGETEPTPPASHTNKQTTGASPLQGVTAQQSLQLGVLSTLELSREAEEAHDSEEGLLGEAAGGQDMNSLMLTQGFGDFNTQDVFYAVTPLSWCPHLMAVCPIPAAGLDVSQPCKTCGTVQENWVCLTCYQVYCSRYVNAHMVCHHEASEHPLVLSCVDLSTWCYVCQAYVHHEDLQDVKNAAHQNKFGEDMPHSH
Put plainly: Inhibition of HDAC6 in mouse Neuro2a cells assessed as increase in acetylated alpha-tubulin levels incubated for 24 hrs by Western blot analysis. Type of data set: cell-based. The following applies: dose 0.039-20 µM. On the technique in general: In western blotting, separated proteins are transferred to a membrane and probed.

The target in the next data set is Histone deacetylase 9 (Homo sapiens, UniProt Q9UKV0). Put plainly: Inhibition of C-terminal His-tagged human HDAC9 (604 to 1066 residues) expressed in baculovirus-infected Sf9 cells using Boc Lys(TFA)-AMC as substrate preincubated for 5 mins followed by substrate addition and further incubated for 30 mins by fluorogenic assay.
Chain of Histone deacetylase 9 (Q9UKV0 whole entry, the tested form may be a part): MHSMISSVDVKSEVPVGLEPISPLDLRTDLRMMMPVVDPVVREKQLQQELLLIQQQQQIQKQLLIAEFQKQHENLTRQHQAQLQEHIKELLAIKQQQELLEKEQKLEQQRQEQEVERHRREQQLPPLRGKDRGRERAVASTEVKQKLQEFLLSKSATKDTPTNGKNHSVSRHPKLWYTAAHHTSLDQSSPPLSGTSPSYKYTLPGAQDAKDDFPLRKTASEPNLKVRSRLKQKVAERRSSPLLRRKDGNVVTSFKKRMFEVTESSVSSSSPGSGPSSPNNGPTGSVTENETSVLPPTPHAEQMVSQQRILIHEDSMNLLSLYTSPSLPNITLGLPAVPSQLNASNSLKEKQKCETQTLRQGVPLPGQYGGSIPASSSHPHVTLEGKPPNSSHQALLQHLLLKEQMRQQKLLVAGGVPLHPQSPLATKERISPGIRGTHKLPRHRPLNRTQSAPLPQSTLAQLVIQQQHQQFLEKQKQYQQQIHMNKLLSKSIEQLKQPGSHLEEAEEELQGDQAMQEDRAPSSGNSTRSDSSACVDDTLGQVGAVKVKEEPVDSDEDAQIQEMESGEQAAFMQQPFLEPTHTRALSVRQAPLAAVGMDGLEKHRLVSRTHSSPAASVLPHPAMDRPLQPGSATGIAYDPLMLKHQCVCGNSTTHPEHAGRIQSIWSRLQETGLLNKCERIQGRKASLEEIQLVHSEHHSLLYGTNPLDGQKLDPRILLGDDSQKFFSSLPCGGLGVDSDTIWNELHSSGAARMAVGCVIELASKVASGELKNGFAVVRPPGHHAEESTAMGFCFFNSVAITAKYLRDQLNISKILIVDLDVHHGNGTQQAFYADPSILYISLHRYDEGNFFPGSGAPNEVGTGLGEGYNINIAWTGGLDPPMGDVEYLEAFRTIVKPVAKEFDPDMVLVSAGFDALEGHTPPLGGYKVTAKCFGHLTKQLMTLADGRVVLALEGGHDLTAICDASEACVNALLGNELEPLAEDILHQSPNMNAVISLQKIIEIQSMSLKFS
The target of another data set is Histone deacetylase. Put plainly: Inhibition of HDAC in human HeLa nuclear extracts using Boc-Lys (acetyl)-AMC as substrate preincubated for 5 mins followed by substrate addition and further incubated for 30 mins by fluorescence based assay. Type of data set: subcellular, Nucleus.
Data set [2] concerns the target T2, Protein deacetylase HDAC6 (Homo sapiens, UniProt Q9UBN7).
T2 sequence (Q9UBN7 whole entry): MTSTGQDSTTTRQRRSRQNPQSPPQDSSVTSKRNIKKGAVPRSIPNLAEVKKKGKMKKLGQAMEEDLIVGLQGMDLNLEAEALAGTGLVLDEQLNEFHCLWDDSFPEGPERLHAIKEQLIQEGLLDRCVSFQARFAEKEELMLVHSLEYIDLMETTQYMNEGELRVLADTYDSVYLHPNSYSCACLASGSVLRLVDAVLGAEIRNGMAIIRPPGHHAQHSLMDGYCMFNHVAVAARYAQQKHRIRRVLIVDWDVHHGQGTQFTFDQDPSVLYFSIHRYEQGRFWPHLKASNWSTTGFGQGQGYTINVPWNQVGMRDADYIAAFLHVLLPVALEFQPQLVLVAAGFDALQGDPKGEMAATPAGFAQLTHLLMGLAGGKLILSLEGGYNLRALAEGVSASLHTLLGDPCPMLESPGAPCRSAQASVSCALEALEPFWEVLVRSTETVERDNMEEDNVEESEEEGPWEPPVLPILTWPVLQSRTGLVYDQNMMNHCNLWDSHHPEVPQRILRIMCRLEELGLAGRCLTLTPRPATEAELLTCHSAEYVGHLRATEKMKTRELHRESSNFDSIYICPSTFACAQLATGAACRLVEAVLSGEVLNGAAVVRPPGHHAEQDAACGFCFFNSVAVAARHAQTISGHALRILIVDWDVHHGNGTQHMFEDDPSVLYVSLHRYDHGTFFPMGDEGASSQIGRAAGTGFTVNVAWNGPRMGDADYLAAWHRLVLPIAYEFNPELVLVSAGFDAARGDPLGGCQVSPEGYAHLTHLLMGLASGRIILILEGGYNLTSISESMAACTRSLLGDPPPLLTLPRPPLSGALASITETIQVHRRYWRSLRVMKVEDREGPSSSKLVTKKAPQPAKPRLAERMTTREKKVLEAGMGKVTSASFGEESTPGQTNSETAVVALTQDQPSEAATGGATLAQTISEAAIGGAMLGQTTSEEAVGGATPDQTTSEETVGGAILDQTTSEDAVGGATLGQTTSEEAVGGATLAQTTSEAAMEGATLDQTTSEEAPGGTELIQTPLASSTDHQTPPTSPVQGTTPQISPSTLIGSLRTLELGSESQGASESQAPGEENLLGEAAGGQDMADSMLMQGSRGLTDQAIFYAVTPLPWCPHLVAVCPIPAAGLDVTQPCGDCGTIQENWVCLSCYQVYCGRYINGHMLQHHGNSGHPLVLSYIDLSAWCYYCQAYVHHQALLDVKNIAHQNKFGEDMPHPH
Briefly: Inhibition of N-terminal GST-tagged full length human HDAC6 expressed in baculovirus-infected Sf9 cells using Boc-Lys (acetyl)-AMC as substrate preincubated for 5 mins followed by substrate addition and further incubated for 30 mins by fluorescence based assay.

The next data set deals with T3, Histone deacetylase 7 (Homo sapiens, UniProt Q8WUI4).
T3 sequence (Q8WUI4 whole entry): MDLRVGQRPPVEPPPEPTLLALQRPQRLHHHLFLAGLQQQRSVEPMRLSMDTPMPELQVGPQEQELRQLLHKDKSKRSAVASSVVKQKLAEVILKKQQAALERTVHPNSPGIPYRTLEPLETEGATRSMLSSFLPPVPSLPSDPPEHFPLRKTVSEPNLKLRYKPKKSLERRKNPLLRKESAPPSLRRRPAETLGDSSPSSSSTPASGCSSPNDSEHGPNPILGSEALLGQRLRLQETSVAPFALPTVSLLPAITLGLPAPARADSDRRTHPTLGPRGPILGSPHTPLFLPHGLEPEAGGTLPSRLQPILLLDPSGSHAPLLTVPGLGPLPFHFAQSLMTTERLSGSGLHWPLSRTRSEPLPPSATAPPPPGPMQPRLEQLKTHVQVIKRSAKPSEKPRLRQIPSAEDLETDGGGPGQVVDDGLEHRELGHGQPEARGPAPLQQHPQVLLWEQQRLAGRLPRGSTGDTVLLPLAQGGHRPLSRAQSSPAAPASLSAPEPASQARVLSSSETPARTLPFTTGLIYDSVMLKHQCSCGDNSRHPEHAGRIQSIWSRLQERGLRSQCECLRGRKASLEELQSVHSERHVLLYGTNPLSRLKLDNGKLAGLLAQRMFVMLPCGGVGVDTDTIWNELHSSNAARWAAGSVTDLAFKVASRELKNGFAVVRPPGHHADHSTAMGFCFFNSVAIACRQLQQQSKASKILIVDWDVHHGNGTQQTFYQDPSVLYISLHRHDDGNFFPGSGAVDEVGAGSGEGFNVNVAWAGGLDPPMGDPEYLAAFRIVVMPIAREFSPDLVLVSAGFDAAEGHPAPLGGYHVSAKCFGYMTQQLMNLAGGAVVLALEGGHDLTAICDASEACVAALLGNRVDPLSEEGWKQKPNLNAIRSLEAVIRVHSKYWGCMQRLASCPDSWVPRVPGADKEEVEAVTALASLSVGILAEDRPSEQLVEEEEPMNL
Briefly: Inhibition of N-terminal GST-tagged human HDAC7 (518 to end residues) expressed in baculovirus-infected Sf9 cells using Boc Lys(TFA)-AMC as substrate preincubated for 5 mins followed by substrate addition and further incubated for 30 mins by fluorogenic assay.

A further data set deals with Histone deacetylase 4 (Homo sapiens, UniProt P56524). Briefly: Inhibition of N-terminal GST-tagged and C-terminal His-tagged human HDAC4 (627 to 1084 residues) expressed in baculovirus infected Sf9 cells using Boc Lys(TFA)-AMC as substrate preincubated for 5 mins followed by substrate addition and further incubated for 30 mins by fluorogenic assay.
Chain of Histone deacetylase 4 (P56524 whole entry, the tested form may be a part): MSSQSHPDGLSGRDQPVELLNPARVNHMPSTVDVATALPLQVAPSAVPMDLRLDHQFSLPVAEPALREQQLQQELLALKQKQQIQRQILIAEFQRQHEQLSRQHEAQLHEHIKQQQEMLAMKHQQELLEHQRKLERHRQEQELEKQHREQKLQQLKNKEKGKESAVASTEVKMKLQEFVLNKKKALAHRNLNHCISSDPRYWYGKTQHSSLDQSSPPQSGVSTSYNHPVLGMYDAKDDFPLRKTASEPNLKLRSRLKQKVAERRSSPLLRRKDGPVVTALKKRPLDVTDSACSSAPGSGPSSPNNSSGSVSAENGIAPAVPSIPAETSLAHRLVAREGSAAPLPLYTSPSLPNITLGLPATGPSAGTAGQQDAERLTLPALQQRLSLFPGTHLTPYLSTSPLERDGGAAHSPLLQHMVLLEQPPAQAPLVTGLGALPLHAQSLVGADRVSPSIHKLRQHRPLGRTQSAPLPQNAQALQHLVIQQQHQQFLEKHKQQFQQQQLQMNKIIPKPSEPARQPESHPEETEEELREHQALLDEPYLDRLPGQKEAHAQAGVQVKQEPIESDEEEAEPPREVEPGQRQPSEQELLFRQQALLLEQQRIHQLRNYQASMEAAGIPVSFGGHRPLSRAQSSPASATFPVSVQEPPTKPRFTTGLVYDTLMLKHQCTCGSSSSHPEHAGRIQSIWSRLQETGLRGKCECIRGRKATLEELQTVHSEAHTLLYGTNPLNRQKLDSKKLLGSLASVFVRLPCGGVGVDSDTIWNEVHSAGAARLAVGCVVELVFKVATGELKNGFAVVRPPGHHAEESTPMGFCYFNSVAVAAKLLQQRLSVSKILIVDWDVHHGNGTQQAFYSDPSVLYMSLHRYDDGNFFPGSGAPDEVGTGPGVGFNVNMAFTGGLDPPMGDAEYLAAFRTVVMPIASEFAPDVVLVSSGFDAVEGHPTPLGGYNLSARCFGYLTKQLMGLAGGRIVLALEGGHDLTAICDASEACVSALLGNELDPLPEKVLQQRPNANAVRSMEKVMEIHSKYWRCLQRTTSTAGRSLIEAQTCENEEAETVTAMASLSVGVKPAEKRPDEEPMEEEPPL
In data set [3] the target is Amyloid-beta precursor protein (Homo sapiens) (UniProt P05067). Briefly: Inhibition of amyloid beta (1 to 42) (unknown origin) aggregation upto 10 uM by ThT fluorescence assay. To be noted: dose microM <=10.
Data set [4] deals with SH-SY5Y. Put plainly: Neuroprotective activity against H2O2-induced cell death in human SH-SY5Y cells assessed as cell viability at 40 uM incubated for 3 hrs by MTT assay. The data set is classed as functional. To be noted: read-out: Activity.
Data set [5] has as its target Acetylcholinesterase (Homo sapiens) (UniProt P22303). Briefly: Inhibition of AChE (unknown origin).
The target in data set [6] is Class 1 histone deacetylase (Mus musculus) (UniProt Q8VH37+O09106+P70288+O88895). Put plainly: Inhibition of class I HDAC in mouse Neuro2a cells assessed as increase in acetylated histone H3 level at 0.039 to 20 uM incubated for 24 hrs by Western blot analysis. Type of data set: cell-based. To be noted: dose 0.039-20 µM.
Chain of Class 1 histone deacetylase (Mus musculus) (O09106 whole entry, looked up): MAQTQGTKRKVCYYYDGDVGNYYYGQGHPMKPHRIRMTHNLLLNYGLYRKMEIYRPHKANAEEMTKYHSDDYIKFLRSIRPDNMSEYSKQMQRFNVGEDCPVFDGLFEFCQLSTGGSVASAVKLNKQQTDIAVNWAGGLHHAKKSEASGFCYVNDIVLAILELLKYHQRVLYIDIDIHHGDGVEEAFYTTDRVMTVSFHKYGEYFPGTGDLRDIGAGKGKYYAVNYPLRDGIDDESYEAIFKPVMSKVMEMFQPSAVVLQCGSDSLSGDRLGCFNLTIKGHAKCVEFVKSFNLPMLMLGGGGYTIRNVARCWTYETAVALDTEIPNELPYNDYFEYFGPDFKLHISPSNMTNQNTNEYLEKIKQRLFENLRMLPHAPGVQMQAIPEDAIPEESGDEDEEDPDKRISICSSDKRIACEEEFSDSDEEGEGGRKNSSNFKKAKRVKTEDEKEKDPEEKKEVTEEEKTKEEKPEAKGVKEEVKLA
Chain of Class 1 histone deacetylase (Mus musculus) (O88895 whole entry, looked up): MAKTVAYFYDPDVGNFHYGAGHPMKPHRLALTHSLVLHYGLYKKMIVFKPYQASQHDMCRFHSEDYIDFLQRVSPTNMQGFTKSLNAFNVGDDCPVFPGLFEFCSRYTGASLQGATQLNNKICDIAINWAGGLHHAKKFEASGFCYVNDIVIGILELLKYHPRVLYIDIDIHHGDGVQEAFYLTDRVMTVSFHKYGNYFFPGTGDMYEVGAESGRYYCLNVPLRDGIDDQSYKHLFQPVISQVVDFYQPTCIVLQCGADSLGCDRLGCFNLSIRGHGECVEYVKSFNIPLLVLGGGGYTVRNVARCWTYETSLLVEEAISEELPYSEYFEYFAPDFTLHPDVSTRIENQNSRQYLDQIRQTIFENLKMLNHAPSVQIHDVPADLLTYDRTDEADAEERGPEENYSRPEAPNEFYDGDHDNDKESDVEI
Chain of Class 1 histone deacetylase (Mus musculus) (P70288 whole entry, looked up): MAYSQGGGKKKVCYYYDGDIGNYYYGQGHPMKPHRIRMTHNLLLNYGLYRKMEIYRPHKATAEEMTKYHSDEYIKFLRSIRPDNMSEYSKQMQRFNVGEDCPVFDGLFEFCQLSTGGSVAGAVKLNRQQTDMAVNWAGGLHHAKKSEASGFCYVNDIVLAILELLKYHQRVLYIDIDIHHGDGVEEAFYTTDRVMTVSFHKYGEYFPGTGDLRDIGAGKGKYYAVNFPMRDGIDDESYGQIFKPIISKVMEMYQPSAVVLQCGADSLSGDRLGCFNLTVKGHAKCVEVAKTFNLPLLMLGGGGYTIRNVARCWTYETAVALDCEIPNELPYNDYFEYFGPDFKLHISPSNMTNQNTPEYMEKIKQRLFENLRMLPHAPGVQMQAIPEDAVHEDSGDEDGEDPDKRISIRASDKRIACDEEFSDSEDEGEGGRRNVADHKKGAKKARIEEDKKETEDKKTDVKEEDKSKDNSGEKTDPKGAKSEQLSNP
Chain of Class 1 histone deacetylase (Mus musculus) (Q8VH37 whole entry, looked up): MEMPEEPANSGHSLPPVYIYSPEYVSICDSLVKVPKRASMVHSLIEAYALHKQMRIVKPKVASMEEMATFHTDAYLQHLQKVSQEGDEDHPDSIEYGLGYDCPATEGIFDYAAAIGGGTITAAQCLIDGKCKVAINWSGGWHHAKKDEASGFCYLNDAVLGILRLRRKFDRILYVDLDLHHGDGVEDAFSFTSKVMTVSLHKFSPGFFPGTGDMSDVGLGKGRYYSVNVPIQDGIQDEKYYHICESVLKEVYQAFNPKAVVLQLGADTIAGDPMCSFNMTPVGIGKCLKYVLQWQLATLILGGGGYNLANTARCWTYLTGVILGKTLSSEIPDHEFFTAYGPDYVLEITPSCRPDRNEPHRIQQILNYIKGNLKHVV
The subject of data set [7] is SH-SY5Y. Put plainly: Induction of neurite outgrowth in human SH-SY5Y cells incubated for 5 days by immunostaining analysis. The data set is classed as functional, cell-based. To be noted: dose 1.25-5 µM, time 5.0 day.
The subject of data set [8] is SH-SY5Y. Put plainly: Neuroprotective activity against H2O2-induced cell death in human SH-SY5Y cells assessed as increase in cell viability incubated for 3 hrs by MTT assay. The data set is classed as functional, cell-based. To be noted: dose 2.5-40 µM.
Data set [9] concerns SH-SY5Y. Put plainly: Induction of neurite outgrowth in human SH-SY5Y cells at 2.5 uM incubated for 5 days by immunostaining analysis. The data set is classed as functional, cell-based. To be noted: time 5.0 day.

Chain of Acetylcholinesterase (Homo sapiens) (P22303 whole entry): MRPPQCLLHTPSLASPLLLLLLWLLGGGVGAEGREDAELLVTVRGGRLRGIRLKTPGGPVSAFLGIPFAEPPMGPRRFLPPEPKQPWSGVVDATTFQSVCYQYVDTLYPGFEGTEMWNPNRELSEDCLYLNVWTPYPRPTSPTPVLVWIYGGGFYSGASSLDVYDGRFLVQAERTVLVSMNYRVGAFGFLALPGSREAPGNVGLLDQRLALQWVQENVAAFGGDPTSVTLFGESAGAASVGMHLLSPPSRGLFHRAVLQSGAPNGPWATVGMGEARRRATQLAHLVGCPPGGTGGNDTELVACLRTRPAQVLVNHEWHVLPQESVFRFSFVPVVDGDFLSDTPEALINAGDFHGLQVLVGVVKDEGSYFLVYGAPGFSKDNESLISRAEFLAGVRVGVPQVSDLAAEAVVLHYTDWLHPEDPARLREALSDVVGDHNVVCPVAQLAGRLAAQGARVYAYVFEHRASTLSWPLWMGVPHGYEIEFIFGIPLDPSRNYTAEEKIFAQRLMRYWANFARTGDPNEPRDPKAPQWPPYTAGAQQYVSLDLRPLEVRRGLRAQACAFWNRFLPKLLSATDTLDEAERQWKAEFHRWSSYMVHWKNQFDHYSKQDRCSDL

In the case of `O=C(NO)c1ccc(CN2c3ccccc3Sc3ccccc32)cc1`, the Activity entry in the data set with N2a was “Non-Toxic”. Also, the inhibition result in [1] is “Dose-Dependent Effect”.
As usually defined, the IC50 is the concentration at which inhibition is half-maximal. Read a low IC50 as greater potency. Consider `NC(=O)c1ccc2c(c1)N(Cc1ccc(/C=C/C(=O)NO)cc1)c1ccccc1S2`, for which the half-maximal inhibitory concentration (IC50) at Histone deacetylase 9 turned out to be 8270 nM; against Histone deacetylase it was 20 nM; in data set [2], 37 nM; on Histone deacetylase 7 it was 5740 nM; on Histone deacetylase 4, 3260 nM.
The corresponding values for `CSc1ccc2c(c1)N(Cc1ccc(C(=O)NO)cc1)c1ccccc1S2` are 3260 nM, 680 nM, 9.4 nM, 2250 nM and 5800 nM.
With `O=C(NO)c1ccc(CN2c3ccccc3[S+]([O-])c3ccccc32)cc1`, the IC50 on Histone deacetylase 9 turned out to be 27600 nM; on Histone deacetylase, 2760 nM; in data set [2] it was 20.5 nM; at Histone deacetylase 7, 5150 nM; against Histone deacetylase 4, 6620 nM.
The like results for `NC(=O)c1ccc2c(c1)N(Cc1ccc(C(=O)NO)cc1)c1ccccc1[S+]2[O-]` (configuration not stated) were, in that order, 4200 nM, 1690 nM, 14.3 nM, 9380 nM and 12900 nM.
The like results for `COc1ccc2c(c1)N(Cc1ccc(C(=O)NO)cc1)c1ccccc1S2` were, in that order, 29700 nM, 350 nM, 18.9 nM, 1550 nM and 4760 nM.
The like results for `C/C(=N\O)c1ccc2c(c1)N(Cc1ccc(C(=O)NO)cc1)c1ccccc1S2` were, in that order, 4340 nM, 330 nM, 10.8 nM, 1090 nM and 3850 nM.
On to `O=C(NO)c1ccc(CN2c3ccccc3Sc3ccc(Cl)cc32)cc1`, for which the IC50 against Histone deacetylase 9 worked out at 350 nM; against Histone deacetylase, 290 nM; in data set [2], 9.5 nM; at Histone deacetylase 7 it was 1360 nM; on Histone deacetylase 4, 3600 nM.
For the molecule `NC(=O)c1ccc2c(c1)N(Cc1ccc(C(=O)NO)cc1)c1ccccc1S2`, the inhibition entry in data set [3] and in [5] was “inactive” each time. Moreover, the viability at 40 µM in the data set with SH-SY5Y [4] turned out to be 70.8%. In addition, the results for the Activity result with N2a, in the data set with SH-SY5Y [7] and in the data set on SH-SY5Y [8] were “Non-Toxic”, “Dose-Dependent Effect” and “Dose-Dependent Effect”, respectively. In data set [1], the inhibition result is “Dose-Dependent Effect”. In data set [6], the inhibition entry is “Active”. Also, the outcome with SH-SY5Y [9] was Active.
On to `O=C(NO)c1ccc(CN2c3ccccc3Sc3ccc(C(F)(F)F)cc32)cc1`, for which the half-inhibitory concentration (IC50) is 2580 nM on Histone deacetylase 9; 840 nM on Histone deacetylase; 14.2 nM in data set [2]; 2240 nM against Histone deacetylase 7; 7590 nM at Histone deacetylase 4.
Take `CSc1ccc2c(c1)N(Cc1ccc(C(=O)NO)cc1)c1ccccc1[S+]2[O-]` (configuration not stated): the IC50 against Histone deacetylase 9 was 720 nM; against Histone deacetylase, 1680 nM; in data set [2], 35.9 nM; against Histone deacetylase 7, more than 40000 nM; on Histone deacetylase 4, more than 40000 nM.
In turn, `O=C(NO)c1ccc(Nc2c3ccccc3nc3ccc(Br)cc23)cc1` showed an IC50 against Histone deacetylase of 160 nM.
